Assay results taken from patent publication US10800788B2, “4-(aryl)-N-(3-alkoxyfuro[2,3-b]pyrazin-2-yl)-piperazine-1-carboxamide derivative and antiproliferative effect thereof” (Dongguk University Industry-Academic Cooperation Foundation, priority 2016, dated 2020).

Tests used:
HT29 = test: Cell growth inhibition experiment (SRB), HT29; format: cell-based, human; conditions: Homo sapiens, HT-29, 96 h, 96 hours incubation, read-out: IC50 (μM) for cancer cell line HT29
Procedure: (§1) The 4-(aryl)-N-(3-alkoxyfuro[2,3-b]pyrazin-2-yl)-piperazine-1-carboxamide derivative compounds synthesized according to Examples 1 to 60 of the present invention were treated with various human tissue-derived cancer cell lines cultured according to Experimental Example 1, and thus the inhibitory effect of the growth of human cancer cells was confirmed. The cell growth inhibition experiment was conducted using the sulforhodamine B (SRB) technique (Skehan et al., J. National Cancer Institute, 1990, 82: 1107-1112). Specifically, each cell line was seeded in a 96-well plate at a density of 2 to 3×10^3 cells/well, cultured overnight, and then treated with the 4-(aryl)-N-(3-alkoxyfuro[2,3-b]pyrazin-2-yl)-piperazine-1-carboxamide derivative compounds of the present invention. The experiment was repeated 3 times for each compound. Cells treated with each compound were additionally incubated for 96 hours, fixed with 10% trichloroacetic acid (TCA), and then left at 4° C. for 1 hour. The resultant was washed 3 times with distilled water. Thereafter, each cell was treated with 0.4% sulforhodamine B dissolved in 1% acetic acid, stained for 30 minutes, and then washed 4 times with 1% acetic acid. The resultant was dried in the air. After shaking the resultant in Tris solution (10 mM) for 5 minutes, the absorbance was measured at 530 nm using a Benchmark Plus Microplate reader (Bio-Rad Laboratories, Hercules, Calif.).
(§2) In order to convert the OD530 value to the number of viable cells per each well, the measured OD530 value was compared to the standard OD530-vs.-cell number curve of each cell line. The percent survival was calculated using the following formula: % survival=Nlive cells(test)/Nlive cells(control)×100

HEK293 = test: Cell growth inhibition experiment (SRB), HEK293; format: cell-based, human; conditions: Homo sapiens, HEK293, 96 h, 96 hours incubation, read-out: IC50 (μM) for cancer cell line HEK293
Procedure: as §1, §2

A549 = test: Cell growth inhibition experiment (SRB), A549; format: cell-based; conditions: Homo sapiens, A549, 96 h, 96 hours incubation, read-out: IC50 (μM) for cancer cell line A549
Procedure: as §1, §2

[1] = test system: HN31 (head and neck cancer) cell line; test: Cell growth inhibition experiment (SRB), HN31; format: cell-based, human; conditions: Homo sapiens, 96 h, 96 hours incubation
Procedure: (§3) The cell lines below were used in order to confirm the efficacy of the compounds synthesized in Examples 1 to 60. Human PANC-1 (pancreatic cancer) and MDA-MB-231 (breast cancer) cell lines were obtained from the American Type Culture Collection (ATCC; Manassas, Va.); and HN31 (head and neck cancer) and UMRC2 (kidney cancer) cell lines were secured from the United States National Institutes of Health (Bethesda, Md.). The MDA-MB-231, UMRC2, HN31, and PANC-1 cell lines were cultured in Dulbecco modified Eagle medium (DMEM; Invitrogen, Carlsbad, Calif.) containing FBS (10%), HEPES (10 mM), penicillin (100 U/mL), and streptomycin (100 μg/mL). All cell lines were cultured in an incubator (37° C., 5% CO2).
as §1, §2

[2] = test system: UMRC2 (kidney cancer) cell line; test: Cell growth inhibition experiment (SRB), UMRC2; format: cell-based, human; conditions: Homo sapiens, UMRC2, 96 h, 96 hours incubation
Procedure: as §3, §1, §2

SK-OV-3 = test: Cell growth inhibition experiment (SRB), SK-OV-3; format: cell-based, human; conditions: Homo sapiens, SK-OV-3, 96 h, 96 hours incubation, read-out: IC50 (μM) for cancer cell line SK-OV-3
Procedure: as §1, §2

[3] = test system: MDA-MB-231 (breast cancer) cell line; test: Cell growth inhibition experiment (SRB), MDA-MB-231; format: cell-based, human; conditions: Homo sapiens, MDA-MB-231, 96 h, 96 hours incubation
Procedure: as §3, §1, §2

[4] = test system: PANC-1 (pancreatic cancer) cell line; test: Cell growth inhibition experiment (SRB), PANC-1; format: cell-based; conditions: Homo sapiens, PANC-1, 96 h, 96 hours incubation
Procedure: as §3, §1, §2

HUVEC = test: Cell growth inhibition experiment (SRB), HUVEC; format: cell-based, human; conditions: Homo sapiens, HUVEC, 96 h, 96 hours incubation, read-out: IC50 (μM) […]
Procedure: as §1, §2

SMILES	IC50 (HT29) [µM]	IC50 (HEK293) [µM]	IC50 (A549) [µM]	IC50 [1] [µM]	IC50 [2] [µM]	IC50 (SK-OV-3) [µM]	IC50 [3] [µM]	IC50 [4] [µM]	IC50 (HUVEC) [µM]
CCOc1nc2occc2nc1NC(=O)N1CCN(c2cc(C)cc(F)c2)CC1 [Example 16, N-(3-Ethoxyfuro[2,3-b]pyrazin-2-yl)-4-(3-fluoro-5-methylphenyl)piperazine-1-carboxamide]	< 2.5	< 2.5	< 2.5	< 2.5	0.44	< 2.5	0.24	< 2.5	< 2.5
CCOc1nc2occc2nc1NC(=O)N1CCN(c2cc(F)cc(F)c2)CC1 [Example 17, 4-(3,5-Difluorophenyl)-N-(3-ethoxyfuro[2,3-b]pyrazin-2-yl)piperazine-1-carboxamide]	< 2.5	< 2.5	< 2.5	< 2.5	1.65	< 2.5	0.24	< 2.5	< 2.5
CCOc1nc2occc2nc1NC(=O)N1CCN(c2cc(F)cc(C(F)(F)F)c2)CC1 [Example 18, N-(3-Ethoxyfuro[2,3-b]pyrazin-2-yl)-4-(3-fluoro-5-(trifluoromethyl)phenyl)piperazine-1-carboxamide]	< 2.5	< 2.5	< 2.5	< 2.5	0.24	< 2.5	0.44	< 2.5	< 2.5
CCOc1nc2occc2nc1NC(=O)N1CCN(c2cc(C(F)(F)F)cc(C(F)(F)F)c2)CC1 [Example 19, 4-(3,5-Bis(trifluoromethyl)phenyl)-N-(3-ethoxyfuro[2,3-b]pyrazin-2-yl)piperazine-1-carboxamide]	0.71	1.23	0.44	0.36	0.68	< 2.5	0.34	1.23	0.68
CCOc1nc2occc2nc1NC(=O)N1CCN(c2cccc(OC(F)(F)F)c2)CC1 [Example 20, N-(3-Ethoxyfuro[2,3-b]pyrazin-2-yl)-4-(3-(trifluoromethoxy)phenyl)piperazine-1-carboxamide]	0.62	0.12	0.24	0.36	1.63	0.22	0.25	0.36	0.21
COc1cc(OC)cc(N2CCN(C(=O)Nc3nc4cc(C)oc4nc3OC)CC2)c1 [Example 21, 4-(3,5-Dimethoxyphenyl)-N-(3-methoxy-6-methylfuro[2,3-b]pyrazin-2-yl)piperazine-1-carboxamide]	1.85	1.25	1.63	< 2.5	1.74	1.85	0.44	2.12	< 2.5
COc1cc(F)cc(N2CCN(C(=O)Nc3nc4cc(C)oc4nc3OC)CC2)c1 [Example 23, 4-(3-Fluoro-5-methoxyphenyl)-N-(3-methoxy-6-methylfuro[2,3-b]pyrazin-2-yl)piperazine-1-carboxamide]	0.28	0.35	0.63	0.28	0.44	0.36	0.36	0.44	0.45
COc1cc(OCCN(C)C)cc(N2CCN(C(=O)Nc3nc4cc(C)oc4nc3OC)CC2)c1 [Example 24, 4-(3-(2-(Dimethylamino)ethoxy)-5-methoxyphenyl)-N-(3-methoxy-6-methylfuro[2,3-b]pyrazin-2-yl)piperazine-1-carboxamide]	0.36	0.25	0.87	< 2.5	0.36	0.12	0.12	0.44	< 2.5
